Consider eleven molecules from ChEMBL document CHEMBL4020850, “Discovery of LSZ102, a Potent, Orally Bioavailable Selective Estrogen Receptor Degrader (SERD) for the Treatment of Estrogen Receptor Positive Breast Cancer” (J Med Chem, 2018).

For orientation: IC50 means the midpoint of a concentration-inhibition curve. As a reminder, the thermodynamic solubility is the concentration in solution at equilibrium with solid. Usually Cmax stands for the peak of the concentration-time curve. Broadly, the bioavailability is dose-corrected exposure relative to a reference, in per cent. By T/C is commonly meant the result in the treated group divided by that in the control group, in per cent.

Converted amounts (≈) assume the structure as drawn. The source made the active and inactive calls. The calls are words filed in the database; no cut-off is given here.

Data set [1] concerns MCF7. Briefly: Antiproliferative activity against human MCF7 cells after 6 days in presence of estradiol by CellTiter-Glo assay. Conditions: MCF7, 144 h.
The target in a further data set is T1, Estrogen receptor (Homo sapiens, UniProt P03372).
T1 sequence (P03372 whole entry): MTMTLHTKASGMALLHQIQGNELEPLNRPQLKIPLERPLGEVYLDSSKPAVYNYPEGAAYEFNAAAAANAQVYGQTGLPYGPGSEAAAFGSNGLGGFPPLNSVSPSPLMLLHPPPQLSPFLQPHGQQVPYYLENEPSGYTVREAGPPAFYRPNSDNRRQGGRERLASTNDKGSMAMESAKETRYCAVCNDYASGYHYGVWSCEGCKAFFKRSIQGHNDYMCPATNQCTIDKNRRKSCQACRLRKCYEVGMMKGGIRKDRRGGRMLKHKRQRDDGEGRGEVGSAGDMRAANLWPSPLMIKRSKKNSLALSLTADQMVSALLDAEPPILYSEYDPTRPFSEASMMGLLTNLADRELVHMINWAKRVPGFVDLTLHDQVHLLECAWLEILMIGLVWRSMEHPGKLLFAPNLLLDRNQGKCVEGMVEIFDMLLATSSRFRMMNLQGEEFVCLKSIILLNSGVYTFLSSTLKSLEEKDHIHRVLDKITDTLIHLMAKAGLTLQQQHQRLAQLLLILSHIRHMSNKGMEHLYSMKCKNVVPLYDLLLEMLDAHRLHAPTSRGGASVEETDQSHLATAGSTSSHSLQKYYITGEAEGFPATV
The data set is described as follows: Induction of selective estrogen receptor alpha degradation in human MCF7 cells harboring TK-ERE-Luc assessed as reduction in estradiol-induced transcriptional activity after 24 hrs by luciferase reporter gene assay. Type of data set: cell-based. Background: A reporter such as luciferase makes a cellular process visible.

The nature of data set [2]: Equilibrium solubility in pH 6.8 buffer at 1 mM after 16 hrs by HPLC based shake flask method. Format: physicochemical.
A short description of data set [3]: Clearance in Sprague-Dawley rat at 1 mg/kg, iv or 3 mg/kg, po. Type of data set: ADME, organism-based. Conditions: in vivo.
Data set [4] can be described thus: Cmax in Sprague-Dawley rat at 3 mg/kg, po. Format: ADME, organism-based. The arrangement: dose 3 mg/kg, route oral. As to conditions: in vivo.
The nature of data set [5]: Oral bioavailability in Sprague-Dawley rat at 3 mg/kg. Format: ADME, organism-based. As to conditions: in vivo.
Data set [6] can be described thus: Clearance in C57BL/6 mouse at 1 mg/kg, iv or 3 mg/kg, po. Format: ADME, organism-based. As to conditions: in vivo.
Data set [7] can be described thus: Cmax in C57BL/6 mouse at 3 mg/kg, po. Format: ADME, organism-based. Further details: dose 3 mg/kg, route oral. As to conditions: in vivo.
Data set [8] is described as follows: Oral bioavailability in C57BL/6 mouse at 3 mg/kg. Format: ADME, organism-based. Conditions: in vivo.
In data set [9] the test system is MCF7. The data set is described as follows: Antitumor activity against human MCF7 cells xenografted in NOD SCID gamma mouse assessed as change in tumor volume at 60 mg/kg, po 5 days per week for 48 days post tumor implantation measured 7 hrs post last dose. Format: functional.
The test system of the next data set is Mus musculus. Briefly: Downregulation of progesterone receptor mRNA level in NOD SCID gamma mouse xenografted with human MCF7 cells at 60 mg/kg, po 5 days per week for 48 days post tumor implantation measured 7 hrs post last dose by RT-PCR method. Format: functional, organism-based.

For `CC/C(=C(\c1ccc(O)cc1)c1ccc(OCCN(C)C)cc1)c1ccccc1` [AFIMOXIFENE], the IC50 with MCF7 [1] was found to be 9.9 nM. On to `Oc1ccc(-c2sc3cc(O)ccc3c2Oc2ccc(/C=C/c3nnn[nH]3)cc2)cc1`, for which the IC50 on Estrogen receptor stood at 219 nM. In data set [2], this molecule yielded a solubility (thermodynamic) at 16 h, 1000 µM of 190 µM (≈ 81.4 µg/mL). In [2], `O=C(O)/C=C/c1ccc(Oc2c(-c3ccc(O)cc3)sc3cc(O)ccc23)cc1` showed a solubility (thermodynamic) at 16 h, 1000 µM of 340 µM (≈ 138 µg/mL). The molecule further registered a clearance in data set [3] of 54 mL/min/kg. In addition, the peak level in data set [4] (Cmax) was 80 nM. The same molecule returned a bioavailability in data set [5] of 6%.

Consider `Oc1ccc(-c2sc3cc(O)ccc3c2Oc2ccc(/C=C/c3c[nH]cn3)cc2)cc1`, for which, in data set [2], the thermodynamic solubility at 16 h, 1000 µM was under 5 µM. For the molecule `O=C(O)/C=C/c1ccc(Oc2c(-c3ccc(F)cc3C(F)(F)F)sc3cc(O)ccc23)cc1`, the clearance in data set [6] was 18 mL/min/kg. This molecule also showed a Cmax in data set [7] of 1500 nM. In data set [8], the bioavailability is 30%. The matching figures for `CC/C(=C(/c1ccc(/C=C/C(=O)O)cc1)c1ccc2[nH]ncc2c1)c1ccc(F)cc1Cl` [BRILANESTRANT]: 16 mL/min/kg, 1240 nM and 42%.

As for `O=C(/C=C/c1ccc(Oc2c(-c3ccc(O)cc3)sc3cc(O)ccc23)cc1)NCCO`, the solubility (thermodynamic) at 16 h, 1000 µM in [2] worked out at 11 µM (≈ 4.92 µg/mL).

`NC(=O)/C=C/c1ccc(Oc2c(-c3ccc(O)cc3)sc3cc(O)ccc23)cc1` had a thermodynamic solubility at 16 h, 1000 µM in data set [2] of under 5 µM.

For `CC/C(=C(\c1ccccc1)c1ccc(OCCN(C)C)cc1)c1ccccc1` [TAMOXIFEN], the T/C in the data set on MCF7 [9] was 24%. Also, the outcome in the data set on Mus musculus was Active. With `O=C(O)/C=C/c1ccc(Nc2c(-c3ccc(O)cc3)sc3cc(O)ccc23)cc1`, the IC50 at Estrogen receptor is over 10000 nM. `O=C(O)CCc1ccc(Oc2c(-c3ccc(O)cc3)sc3cc(O)ccc23)cc1` had a solubility (thermodynamic) at 16 h, 1000 µM in data set [2] of over 1000 µM.
